Holding throughout (assay type): physicochemical
Series [1] in a line: Particle size distribution by laser diffraction (Malvern Mastersizer 3000). The conditions noted are these: for PSD D10 / PSD D50 / PSD D90: micronised API after jet milling. As for the experimental part: Particle size distribution was measured using a Malvern Mastersizer 3000. The sample for analysis (10 mg) was suspended in 0.1% lecithin in isooctane (10 mL) and sonicated to disperse the particles prior to measurement. A single sample was prepared for each measurement.
Two batches were prepared and particle size distribution measured using a Mastersizer 3000 (Table 8).

The nature of series [2]: Moisture content by Karl Fischer coulometry. The protocol: Three assay determinations were made for each assay and the mean value reported. Moisture content was measured by Karl Fischer coulometry using a Metrohm 851 Tritrando coulometer and sample oven. 50 mg of each sample was heated to 80° C. Lactose monohydrate was used as a bracketing standard. Single measurements were made for each sample. The emitted dose was measured using Dosage Unit Sampling Apparatus (DUSA) at 100 L/min. The samples were recovered using 50 mL of diluent. Ten determinations were performed and mean value reported

The nature of series [3]: SEM, XRPD and overall stability assessment of micronised drug substance. The settings on record: 1 month 25°C/60% RH and 40°C/75% RH, then four months laboratory conditions. As for the experimental part:
Scanning electron microscopy and x-ray powder diffraction were performed at the University of Bath.
SEM images were recorded (FIGS. 1 and 2) and the polymorphic stability was assessed by XRPD (FIGS. 3 and 4) and DSC (FIG. 6). The characterization was then repeated after a further four months at laboratory conditions.

Setting [4] is: +4 months at laboratory conditions.

Consider `Br.COC(=O)c1ccc2c(c1)NC(=O)/C2=C(\Nc1ccc(N(C)C(=O)CN2CCN(C)CC2)cc1)c1ccccc1` [Batch 1], for which, in series [1], the “PSD D10” value was 0.04 μm, the “PSD D50” value is reported as 1.03 μm and the “PSD D90” value came to 2.66 μm.

Turning to `Br.COC(=O)c1ccc2c(c1)NC(=O)/C2=C(\Nc1ccc(N(C)C(=O)CN2CCN(C)CC2)cc1)c1ccccc1` [Batch 2], in series [1], the “PSD D10” value is on record as 0.60 μm, the “PSD D50” value stood at 1.51 μm and the “PSD D90” value is 2.87 μm.

For `COC(=O)c1ccc2c(c1)NC(=O)/C2=C(\Nc1ccc(N(C)C(=O)CN2CCN(C)CC2)cc1)c1ccccc1` [Micronised Nintedanib HBr], the D10 turned out to be 0.6 mcm in series [1] (1 month 25/60), 0.6 mcm in series [1] (1 month 40/75), 0.6 mcm in series [1] (setting [4]) and 0.5 mcm in series [1] (T0). In addition, the D50 was 1.6 mcm in series [1] (1 month 25/60), 1.5 mcm in series [1] (1 month 40/75), 1.5 mcm in series [1] (setting [4]) and 1.5 mcm in series [1] (T0). The D90 worked out at 3.0 mcm in series [1] (1 month 25/60), 2.6 mcm in series [1] (1 month 40/75), 2.9 mcm in series [1] (setting [4]) and 2.8 mcm in series [1] (T0). The “Water Content” value in series [2] (1 month 25/60) stood at 5.3%; in series [2] (1 month 40/75) it was 5.2%; in series [2] (setting [4]), 4.7%; in series [2] (T0), 5.3%. The “stability of micronised drug substance (PSD, moisture, SEM, XRPD, DSC)” value in series [3] is “did not change during the study”.

Values taken from patent US20250268821A1 (AVALYN PHARMA INC., priority 2022, published 2025).
